Measurements taken from patent publication US8067456B2 (AEterna Zentaris GmbH, priority 2004, dated 2011).
Structures can show the parent of a compound that is named as a salt. Where two headings read alike, the source gives them in different places.

Molecular target: T1, rat LHRH receptor (Rattus norvegicus, UniProt P30969)
T1 construct: expressed in transfected cells; host or cells: LTK cells (mouse fibroblasts, ATCC CCL-1.3)
T1 sequence (P30969 1-327): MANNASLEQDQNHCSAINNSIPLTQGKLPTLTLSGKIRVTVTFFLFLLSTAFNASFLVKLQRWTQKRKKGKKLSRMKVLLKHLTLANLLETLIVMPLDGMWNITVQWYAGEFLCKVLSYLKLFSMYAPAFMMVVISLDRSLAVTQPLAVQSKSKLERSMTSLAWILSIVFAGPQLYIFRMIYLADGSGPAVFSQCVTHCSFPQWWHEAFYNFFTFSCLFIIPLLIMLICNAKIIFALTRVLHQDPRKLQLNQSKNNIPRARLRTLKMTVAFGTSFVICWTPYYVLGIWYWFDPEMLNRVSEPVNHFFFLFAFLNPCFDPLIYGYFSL
Assay: LHRH receptor-ligand binding assay (transfected LTK cells)
Method: ^125I-Triptorelin [^125I-(D)-Trp6-GnRH] was purchased from Biotrend (Cologne, Germany).
The specific activity was in each case 2.13 Ci/mmol.
LTK cells (mouse fibroblasts: ATCC No. CCL-1.3) which have been transfected with the rat LHRH receptor are cultivated in DMEM medium (Invitrogen Life Technologies, Germany) with penicillin (100 I.U./ml), streptomycin (0.1 mg/ml) and glutamine (0.01 mol/l) and 10% fetal calf serum (FCS; Invitrogen Life Technologies, Germany) on plastic tissue culture plates (Nunc, Germany, 245×245-20 mm).
80% confluent cell culture plates are washed twice with 50 ml of phosphate-buffered saline (PBS) and then detached with 0.01 M EDTA solution. The cells are pelleted by centrifugation at 200·g for 5 min in a laboratory centrifuge (Kendro, Germany). The cell pellet is resuspended in 3 ml of binding medium (DMEM; 10 mM Hepes; 0.5% BSA; 0.1% […]; 1 g/l bacitracin (add fresh, stock 100×); 0.1 g/l SBTI (add fresh, stock 1000×) and the cell count is determined by Trypan blue staining in a Neubauer counting chamber. The cell suspension is adjusted with binding medium to a concentration of 5×10^5 cells/0.05 ml.
Binding studies for competition plots are carried out as duplicates. The test substances are employed as 10 mM DMSO solutions. They are diluted to 4 times the final concentration employed with binding medium. 25 μl of the substance dilution are mixed with 25 μl of tracer solution (^125I-triptorelin or ^125I-cetrorelix). The tracer concentration is adjusted to approx. 50 000 cpm (measured in a Cobra II, γ counter. PE Liefe Science, Germany) in the final reaction volume of 100 μl.
200 μl of silicone/liquid paraffin mixture (84%:16%) are introduced into 650 μl conical tubes (Roth. Germany). 50 μl of the cell suspension are pipetted thereon, followed by 50 μl of the test substance/tracer mixture. The tubes are capped and incubated with vertical rotation in an incubator at 37° C. for 60 min. After incubation, the samples are centrifuged in a centrifuge (Kendro, Germany) at 900 rpm and subsequently shock-frozen in liquid N2. The tip with the cell pellet is cut off and transferred into prepared counting vials (Roth, Germany). The remainder of the conical tube with the remaining supernatant is likewise transferred into a counting vial. The measurement takes place in a γ counter for 1 min/sample.
Evaluation of the samples takes place after calculation of the specific binding compared with untreated cells, after subtraction of the nonspecific binding (excess of unlabeled ligand, 1 μM) by means of GraphPad Prism or alternatively by means of OMMM software.

[1] = LTK cells transfected with rat LHRH receptor, 125I-triptorelin tracer, 37° C., 60 min, read-out: Binding to r-LHRHR EC50

Compound	EC50 [1] [nM]	EC50 [nM]
CCC(C)[C@H](NC(=O)OCc1ccccc1)C(=O)N[C@]1(C(=O)N[C@H](C(N)=S)C(C)CC)CCc2[nH]c3c(Cl)cc(F)cc3c2C1 (stereo partly drawn) [Compound 25, benzyl {(S)-1-[(R)-8-chloro-6-fluoro-3-((S)-2-methyl-1-thiocarbamoylbutylcarbamoyl)-2,3,4,9-tetrahydro-1H-carbazol-3-ylcarbamoyl]-2-methylbutyl}carbamate]	4.2	
CCC(C)[C@H](NC(=O)[C@@]1(NC(=O)[C@H](CCc2ccc(OP(=O)(O)O)cc2)NC(=O)OCc2ccccc2)CCc2[nH]c3c(Cl)cc(Cl)cc3c2C1)C(N)=S (stereo partly drawn) [Compound 12, benzyl[(S)-1-[(R)-6,8-dichloro-3-((S)-2-methyl-1-thiocarbamoylbutylcarbamoyl)-2,3,4,9-tetrahydro-1H-carbazol-3-ylcarbamoyl]-3-(4-phosphonooxyphenyl)propyl]carbamate]		39.2
CCC(C)[C@H](NC(=O)[C@@]1(NC(=O)[C@@H](NC(=O)Cc2cccc(F)c2)C(C)CC)CCc2[nH]c3c(Cl)cc(Cl)cc3c2C1)C(N)=O (stereo partly drawn) [Compound 5, (R)-6,8-dichloro-3-{(S)-2-[2-(3-fluorophenyl)acetylamino]-3-methylpentanoylamino}-2,3,4,9-tetrahydro-1H-carbazole-3-carboxylic acid ((S)-1-carbamoyl-2-methylbutyl)amide]	98.3	
CC(C)[C@H](NC(=O)[C@@]1(NC(=O)[C@@H](NC(=O)OCc2ccc(Cl)cc2)C(C)C)CCc2[nH]c3c(Cl)cc(Cl)cc3c2C1)C(N)=O [Compound 1, 4-chlorobenzyl {(S)-1-[(R)-3-((S)-1-carbamoyl-2-methylpropylcarbamoyl)-6,8-dichloro-2,3,4,9-tetrahydro-1H-carbazol-3-ylcarbamoyl]-2-methylpropyl}carbamate]	261	
CCC(C)[C@H](NC(=O)CCc1ccc(F)cc1)C(=O)N[C@]1(C(=O)N[C@H](C(N)=O)C(C)C)CCc2[nH]c3c(Cl)cc(Cl)cc3c2C1 (stereo partly drawn) [Compound 16, (R)-6,8-dichloro-3-((S)-2-[3-(4-fluorophenyl)propionylamino]-3-methylpentanoylamino)-2,3,4,9-tetrahydro-1H-carbazole-3-carboxylic acid ((S)-1-carbamoyl-2-methylpropyl)amide]	628	
CCC(C)[C@H](NC(=O)[C@@]1(NC(=O)[C@@H](NC(=O)CCc2ccccc2F)C(C)CC)CCc2[nH]c3c(Cl)cc(Cl)cc3c2C1)C(N)=O (stereo partly drawn) [Compound 23, (R)-6,8-dichloro-3-{(S)-2-[3-(2-fluorophenyl)propionylamino]-3-methylpentanoylamino}-2,3,4,9-tetrahydro-1H-carbazole-3-carboxylic acid ((S)-1-carbamoyl-2-methylbutyl)amide]	72.9	
CCC(C)[C@H](NC(=O)[C@@]1(NC(=O)[C@H](CCc2ccc(OC(=O)OCc3ccccc3)cc2)NC(=O)OCc2ccccc2)CCc2[nH]c3c(Cl)cc(Cl)cc3c2C1)C(N)=O (stereo partly drawn) [Compound 8, benzyl 4-{(S)-3-benzyloxycarbonylamino-3-[(R)-3-((S)-1-carbamoyl-2-methylbutylcarbamoyl)-6,8-dichloro-2,3,4,9-tetrahydro-1H-carbazol-3-ylcarbamoyl]propyl}phenylcarbonate]	45.3	
CCC(C)[C@H](NC(=O)[C@@]1(NC(=O)[C@@H](NC(=O)OCc2ccc(Cl)cc2)C(C)CC)CCc2[nH]c3c(Cl)cc(Cl)cc3c2C1)C(N)=O (stereo partly drawn) [Compound 3, 4-chlorobenzyl {(S)-1-[(R)-3-((S)-carbamoyl-2-methylbutylcarbamoyl)-6,8-dichloro-2,3,4,9-tetrahydro-1H-carbazol-3-ylcarbamoyl]-2-methylbutyl}carbamate]	47.2	
CCC(C)[C@H](NC(=O)[C@@]1(NC(=O)[C@H](CCc2ccc(O)cc2)NC(=O)CCc2ccccc2F)CCc2[nH]c3c(Cl)cc(Cl)cc3c2C1)C(N)=O (stereo partly drawn) [Compound 22]	24.6	
CCC(C)[C@H](NC(=O)Cc1ccccc1F)C(=O)N[C@]1(C(=O)N[C@H](C(N)=S)C(C)CC)CCc2[nH]c3c(Cl)cc(Cl)cc3c2C1 (stereo partly drawn) [Compound 13, (R)-6,8-dichloro-3-{(S)-2-[2-(2-fluorophenyl)acetylamino]-3-methylpentanoylamino}-2,3,4,9-tetrahydro-1H-carbazole-3-carboxylic acid ((S)-2-methyl-1-thiocarbamoylbutyl)amide]	2.4	
CC(C)[C@H](NC(=O)[C@@]1(NC(=O)[C@H](CCCCN)NC(=O)CCc2ccc(F)cc2)CCc2[nH]c3c(Cl)cc(Cl)cc3c2C1)C(N)=O [Compound 17, (S)-5-[(R)-3-((S)-1-carbamoyl-2-methylpropylcarbamoyl)-6,8-dichloro-2,3,4,9-tetrahydro-1H-carbazol-3-ylcarbamoyl]-5-[3-(4-fluorophenyl)propionylamino]pentylammonium trifluoroacetate]	525	
CCC(C)[C@H](NC(=O)[C@@]1(NC(=O)[C@H](CCc2ccc(O)cc2)NC(=O)Cc2ccccc2F)CCc2[nH]c3c(Cl)cc(Cl)cc3c2C1)C(N)=S (stereo partly drawn) [Compound 14, (R)-6,8-dichloro-3-[(S)-2-[2-(2-fluorophenyl)acetylamino]-4-(4-hydroxyphenyl)butyrylamino]-2,3,4,9-tetrahydro-1H-carbazole-3-carboxylic acid ((S)-2-methyl-1-thiocarbamoyl-butyl)amide]	2.05	
CCC(C)[C@H](NC(=O)[C@@]1(NC(=O)[C@H](CCc2ccc(OCCOCCOCCOCCOC)cc2)NC(=O)OCc2ccccc2)CCc2[nH]c3c(Cl)cc(Cl)cc3c2C1)C(N)=S (stereo partly drawn) [Compound 24, benzyl {(S)-1-[(R)-6,8-dichloro-3-((S)-2-methyl-1-thiocarbamoylbutylcarbamoyl)-2,3,4,9-tetrahydro-1H-carbazol-3-ylcarbamoyl]-3-[4-(2-{2-[2-(2-methoxyethoxy)ethoxy]-ethoxy}ethoxy)phenyl]propyl}carbamate]	13.5	
2-chlorobenzyl {(S)-1-[(R)-3-((S)-carbamoyl-2-methylbutylcarbamoyl)-6,8-dichloro-2,3,4,9-tetrahydro-1H-carbazol-3-ylcarbamoyl]-2-methylbutyl}carbamate [Compound 6]	104	
CCC(C)[C@H](NC(=O)OCc1ccc(Cl)cc1)C(=O)N[C@]1(C(=O)N[C@H](C(N)=O)C(C)C)CCc2[nH]c3c(Cl)cc(Cl)cc3c2C1 (stereo partly drawn) [Compound 2, 4-chlorobenzyl {(S)-1-[(R)-3-((S)-1-carbamoyl-2-methylpropylcarbamoyl)-6,8-dichloro-2,3,4,9-tetrahydro-1H-carbazol-3-ylcarbamoyl]-2-methylbutyl}carbamate]	205	
